Measured values from US6143740A, “Heregulin antagonists and methods for their use” (Georgetown University, priority 1999, dated 2000).

What was measured:
[1] = system: HRG-induced tyrosine phosphorylation (MDA-453 cells); assay: Inhibition of HRG-induced phosphorylation, dose dependence in MDA-453 cells; format: cell-based; conditions: 10 nM HRG
Protocol: (§1) The ability of compounds of the invention to block HRG-induced phosphorylation was tested by co-incubation with 10 nM HRG (maximal induction).

HRG receptor = assay: Structure-activity relationship of rifamycin analogues as heregulin antagonists (FIGS. 6 and 7); format: cell-based; conditions: substituent at C9 position
Protocol: Replacement of residues 177 and 178 by an acetyl group decreases the binding affinity of HRG to its receptor by more than 50-fold (Barbacci et al., J. Bio. Chem. 1995; 270(16)9585-9).
The structure-activity relationships of rifamycin analogues also indicates the importance of this region (FIGS. 6 and 7).
Inhibition of receptor binding--To investigate whether a compound can inhibit binding between HRG and its receptors, binding assays were performed using ^125 I labeled EGF domain of HRG-β1 (HED-β1). The binding affinity of iodine-labeled HED-β1 in T47D or MDA-453 cells was pre-determined. Unlabeled compounds were co-incubatedwith the radiolabeled ligand for 2 hours at 4° C., and the cells were washed 3 times with an ice-cold binding buffer. The labeled cells were lysed, and counted in a gamma-counter. Compounds that displaced more than 50% of labeled HED-β1 from the HRG-receptors were then re-examined in a dose-dependent manner.
as §1

[2] = system: EGF-mediated signaling pathway (MDA-468 cells); assay: Specificity: incubation with EGF in EGFR overexpressing cell line MDA-468; format: cell-based
32D/erbB-4 cells [3] = assay: IL-3 stimulated (HRG-independent) growth, 32D/erbB-4; format: cell-based, murine
From the text: (§2) Inhibition of HRG-dependent cell proliferation--Since most human cancer cells express more than one of the erbB receptors and different heterodimerization might alter the binding affinity and/or internalization, it is difficult to define the exact correlation of the receptor expression and the antagonist activity of the small molecules. To overcome this difficulty, a 32D cell (murine, hematopoietic) model system, in which the 32D cells were transfected with erbB4 receptor, can be utilized. […] 32t cells transfected with erbB-4 will proliferate in the presence of either HRG or IL-3. With this 32D cell model system, compounds of the invention can be tested for their antagonist activity and specificity in both HRG-dependent and HRG-independent growth.

32D cells = assay: IL-3 stimulated (HRG-independent) growth, 32D; format: cell-based, murine
From the text: as §2

32D/erbB-4 cells [4] = assay: HRG-dependent cell proliferation, 32D/erbB-4; format: cell-based, murine
From the text: as §2

| antagonist activity (structure-activity, FIGS. 6 and 7) (HRG receptor) | Compound | inhibition of HRG-induced phosphorylation [1] | effect on EGF-mediated signaling pathway [2] | inhibition of IL-3 stimulated growth (32D/erbB-4 cells [3]) | inhibition of IL-3 stimulated growth (32D cells) | HRG-dependent cell growth inhibition (32D/erbB-4 cells [4]) |
| --- | --- | --- | --- | --- | --- | --- |
| fairly good activities | COC1C=COC2(C)Oc3c(C)c(O)c4c(O)c(c(C=NN(C)C56CC7CC(CC(C7)C5)C6)c(O)c4c3C2=O)NC(=O)C(C)=CC=CC(C)C(O)C(C)C(O)C(C)C(OC(C)=O)C1C (stereo not drawn) [Compound A3] | dose-dependent inhibition | no or very little effect |  |  |  |
| fairly good activities | COC1C=COC2(C)Oc3c(C)c(O)c4c(O)c(c(C=NN5CCCCCCCCCCCCCCCCC5)c(O)c4c3C2=O)NC(=O)C(C)=CC=CC(C)C(O)C(C)C(O)C(C)C(OC(C)=O)C1C (stereo not drawn) [Compound A4] |  |  |  |  |  |
|  | COC1C=COC2(C)Oc3c(C)c(O)c4c(O)c(c(C=NN5C(C)CN(Cc6cccc(O)c6)CC5C)c(O)c4c3C2=O)NC(=O)C(C)=CC=CC(C)C(O)C(C)C(O)C(C)C(OC(C)=O)C1C (stereo not drawn) [Compound A1] | dose-dependent inhibition | no or very little effect | not IL-3 stimulated growth | not IL-3 stimulated growth | inhibit only the HRG-dependent cell growth |
